According to ChEMBL document CHEMBL5634147, “Multi-targeted anti-Alzheimer's agents: Synthesis, biological evaluation, and molecular modeling study of some pyrazolopyridine hybrids” (Eur J Med Chem, 2023):
pIC50: −log10 of the molar value. Active and inactive are the calls of the source. The rule behind the calls is not given here. Non-standard residues stand in square brackets, D forms with d. Residues, ends and D or L forms follow the SMILES beside them. *: point of attachment. Myristoyl = CCCCCCCCCCCCCC(=O)*; pS = N[C@@H](COP(=O)(O)O)C(=O)O

How the values were obtained:
Acetylcholinesterase = Acetylcholinesterase (Homo sapiens, UniProt P22303); experiment: Inhibition of human AChE using acetylthiocholine iodide as substrate measured after 15 to 20 mins by DTNB reagent based Ellman's method
Chain of Acetylcholinesterase (P22303 whole entry): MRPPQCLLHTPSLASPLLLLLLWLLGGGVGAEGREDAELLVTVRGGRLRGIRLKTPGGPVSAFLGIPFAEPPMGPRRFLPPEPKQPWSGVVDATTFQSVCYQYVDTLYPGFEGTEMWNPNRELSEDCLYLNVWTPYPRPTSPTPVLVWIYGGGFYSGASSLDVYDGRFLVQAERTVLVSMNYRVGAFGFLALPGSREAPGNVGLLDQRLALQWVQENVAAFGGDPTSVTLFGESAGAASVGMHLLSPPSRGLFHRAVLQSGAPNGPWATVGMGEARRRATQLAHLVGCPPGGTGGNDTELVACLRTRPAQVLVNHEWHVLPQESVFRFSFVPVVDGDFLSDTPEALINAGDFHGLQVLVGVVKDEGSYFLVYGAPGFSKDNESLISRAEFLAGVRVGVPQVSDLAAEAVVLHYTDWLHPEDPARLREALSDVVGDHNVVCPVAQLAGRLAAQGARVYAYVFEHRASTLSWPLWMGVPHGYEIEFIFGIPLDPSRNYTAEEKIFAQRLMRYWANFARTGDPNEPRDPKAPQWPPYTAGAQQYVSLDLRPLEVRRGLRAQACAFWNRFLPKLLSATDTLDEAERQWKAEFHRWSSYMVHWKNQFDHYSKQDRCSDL

[1] = molecular target: Glycogen synthase kinase-3 beta (Homo sapiens, UniProt P49841); experiment: Inhibition of human GSK3beta by luminescent microplate reader method
Chain of Glycogen synthase kinase-3 beta (P49841 whole entry): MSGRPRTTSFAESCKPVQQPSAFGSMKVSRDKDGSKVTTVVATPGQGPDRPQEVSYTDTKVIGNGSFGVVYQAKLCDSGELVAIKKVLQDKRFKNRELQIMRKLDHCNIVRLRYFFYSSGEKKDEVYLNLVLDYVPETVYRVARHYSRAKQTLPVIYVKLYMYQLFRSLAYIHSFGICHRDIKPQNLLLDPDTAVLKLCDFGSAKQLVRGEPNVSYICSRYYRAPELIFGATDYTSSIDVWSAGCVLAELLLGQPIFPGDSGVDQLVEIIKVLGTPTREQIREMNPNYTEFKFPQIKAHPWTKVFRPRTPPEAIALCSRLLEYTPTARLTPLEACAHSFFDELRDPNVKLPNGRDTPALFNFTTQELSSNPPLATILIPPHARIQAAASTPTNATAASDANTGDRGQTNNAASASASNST

Cholinesterase = Cholinesterase (Homo sapiens, UniProt P06276); experiment: Inhibition of human BuChE measured after 15 to 20 mins by DTNB reagent based Ellman's method
Chain of Cholinesterase (P06276 whole entry): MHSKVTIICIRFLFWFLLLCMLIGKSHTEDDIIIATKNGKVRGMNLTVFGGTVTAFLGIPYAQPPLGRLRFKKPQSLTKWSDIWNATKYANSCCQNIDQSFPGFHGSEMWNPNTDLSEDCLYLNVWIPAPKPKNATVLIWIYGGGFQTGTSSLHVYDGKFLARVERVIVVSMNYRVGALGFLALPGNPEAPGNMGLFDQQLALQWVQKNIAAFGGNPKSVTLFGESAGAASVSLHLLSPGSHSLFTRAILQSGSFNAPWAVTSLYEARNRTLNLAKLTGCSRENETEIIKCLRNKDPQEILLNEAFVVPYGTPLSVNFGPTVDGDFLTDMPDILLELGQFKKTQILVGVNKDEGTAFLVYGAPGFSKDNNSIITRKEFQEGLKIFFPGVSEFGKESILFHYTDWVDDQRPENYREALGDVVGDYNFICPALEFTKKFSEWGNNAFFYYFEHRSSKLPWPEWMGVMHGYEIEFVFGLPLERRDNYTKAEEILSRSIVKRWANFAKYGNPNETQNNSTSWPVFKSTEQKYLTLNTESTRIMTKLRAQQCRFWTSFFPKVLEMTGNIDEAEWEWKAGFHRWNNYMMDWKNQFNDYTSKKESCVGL

[2] = molecular target: T1, Microtubule-associated protein tau (Homo sapiens, UniProt P10636); experiment: Inhibition of human tau protein aggregation at 10 uM incubated for 1.5 hrs by TMB substrate based ELISA relative to control
T1 sequence (P10636 whole entry): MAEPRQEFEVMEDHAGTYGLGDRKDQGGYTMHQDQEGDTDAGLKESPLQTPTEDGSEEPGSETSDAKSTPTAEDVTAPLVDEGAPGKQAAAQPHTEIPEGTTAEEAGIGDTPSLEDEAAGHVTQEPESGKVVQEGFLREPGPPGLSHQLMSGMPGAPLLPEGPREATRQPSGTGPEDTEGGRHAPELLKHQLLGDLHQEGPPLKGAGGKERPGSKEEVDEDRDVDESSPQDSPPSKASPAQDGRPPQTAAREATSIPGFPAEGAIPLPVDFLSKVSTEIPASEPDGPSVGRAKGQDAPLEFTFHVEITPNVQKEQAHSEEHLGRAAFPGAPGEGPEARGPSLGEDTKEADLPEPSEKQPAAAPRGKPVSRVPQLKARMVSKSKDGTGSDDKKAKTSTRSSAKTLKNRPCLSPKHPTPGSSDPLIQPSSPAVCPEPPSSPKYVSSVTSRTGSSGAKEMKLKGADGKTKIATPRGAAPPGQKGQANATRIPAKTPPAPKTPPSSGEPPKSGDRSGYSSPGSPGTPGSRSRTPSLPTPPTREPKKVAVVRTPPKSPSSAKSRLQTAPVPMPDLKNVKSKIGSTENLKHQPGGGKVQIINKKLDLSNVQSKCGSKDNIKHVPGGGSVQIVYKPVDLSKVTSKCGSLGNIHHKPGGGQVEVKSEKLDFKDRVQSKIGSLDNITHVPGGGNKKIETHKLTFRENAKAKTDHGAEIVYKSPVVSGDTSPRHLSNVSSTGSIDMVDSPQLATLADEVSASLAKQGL

[3] = molecular target: T1, Microtubule-associated protein tau; experiment: Inhibition of human tau protein aggregation incubated for 1.5 hrs by TMB substrate based ELISA
[4] = molecular target: T2, Amyloid-beta precursor protein (Homo sapiens, UniProt P05067); experiment: Inhibition of self-mediated Amyloid beta (1 to 42) (unknown origin) aggregation at 10 uM measured every 5 mins by ThT fluorescence based assay relative to control
T2 sequence (P05067 whole entry): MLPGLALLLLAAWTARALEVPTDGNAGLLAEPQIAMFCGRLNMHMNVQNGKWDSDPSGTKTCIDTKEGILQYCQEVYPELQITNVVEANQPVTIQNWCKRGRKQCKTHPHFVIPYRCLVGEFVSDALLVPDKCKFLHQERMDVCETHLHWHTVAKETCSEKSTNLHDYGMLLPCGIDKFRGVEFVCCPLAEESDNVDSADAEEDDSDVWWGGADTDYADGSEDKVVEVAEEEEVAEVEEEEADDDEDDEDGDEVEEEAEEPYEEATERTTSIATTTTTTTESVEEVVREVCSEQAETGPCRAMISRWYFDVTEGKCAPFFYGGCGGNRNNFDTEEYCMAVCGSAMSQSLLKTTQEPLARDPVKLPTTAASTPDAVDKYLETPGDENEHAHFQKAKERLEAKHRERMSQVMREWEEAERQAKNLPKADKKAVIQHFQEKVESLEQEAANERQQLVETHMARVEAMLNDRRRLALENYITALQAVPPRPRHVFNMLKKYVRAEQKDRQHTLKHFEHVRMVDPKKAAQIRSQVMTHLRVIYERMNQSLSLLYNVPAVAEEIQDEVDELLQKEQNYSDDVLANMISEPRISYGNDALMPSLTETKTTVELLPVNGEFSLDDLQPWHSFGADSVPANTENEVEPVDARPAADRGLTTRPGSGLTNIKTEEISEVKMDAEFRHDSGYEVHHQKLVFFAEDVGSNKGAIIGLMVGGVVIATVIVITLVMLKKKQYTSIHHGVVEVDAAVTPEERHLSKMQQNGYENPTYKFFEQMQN

[5] = molecular target: T2, Amyloid-beta precursor protein; experiment: Inhibition of self mediated Amyloid beta (1 to 42) (unknown origin) aggregation measured every 5 mins by ThT fluorescence based assay
[6] = Metal chelating activity assessed as Fe2+-compound complex formation by measuring hyperchromic shift in presence of FeSO4 by UV-Vis spectroscopy
[7] = Metal chelating activity assessed as Cu2+-compound complex formation by measuring hypochromic shift in presence of CuSO4 by UV-Vis spectroscopy
[8] = Metal chelating activity assessed as Zn2+-compound complex formation by measuring hypochromic shift in presence of ZnSO4 by UV-Vis spectroscopy
[9] = Cytotoxicity against human WI-38 cells assessed as inhibition of cell growth incubated for 72 hrs by MTT assay; type: toxicity, cell-based
human AChE = experiment: Safety index, ratio of IC50 for cytotoxicity against human WI-38 cells to IC50 for human AChE; type: toxicity, cell-based; conditions: read-out: Ratio IC50
[10] = Cytotoxicity against human WI-38 cells assessed as cell viability upto 3.125 uM incubated for 72 hrs by MTT assay relative to control; type: toxicity, cell-based; conditions: read-out: Activity
[11] = Metal chelating activity assessed as Cu2+-compound complex formation by measuring hyperchromic shift in presence of CuSO4 by UV-Vis spectroscopy
[12] = Metal chelating activity assessed as Zn2+-compound complex formation by measuring hyperchromic shift in presence of ZnSO4 by UV-Vis spectroscopy

For `COc1ccc(-c2cc(-c3ccccc3)nc3[nH]nc(N)c23)cc1OC`, the pIC50 (Acetylcholinesterase) was 5.02.

`COc1ccc(-c2cc(-c3ccc(OC)cc3)c3c(N)n[nH]c3n2)cc1` showed a pIC50 (Acetylcholinesterase) of 6.59.

`COc1ccc(-c2cc(-c3cc(OC)c(OC)c(OC)c3)c3c(N)n[nH]c3n2)cc1` showed a pIC50 (Acetylcholinesterase) of 5.22.

With `COc1cc(-c2cc(-c3ccc(Br)cc3)nc3[nH]nc(N)c23)cc(OC)c1OC` the pIC50 (Acetylcholinesterase) was 6.20.

Compound `COc1cc(-c2cc(-c3ccccc3)nc3[nH]nc(N)c23)cc(OC)c1OC` has a pIC50 (Acetylcholinesterase) of 5.72.

For `CCCCCCCCCCCCCC(=O)N[C@@H](CCCCN)C(=O)N[C@@H](CCC(=O)O)C(=O)N[C@@H](C)C(=O)N1CCC[C@H]1C(=O)N1CCC[C@H]1C(=O)N[C@@H](CO)C(=O)N1CCC[C@H]1C(=O)N1CCC[C@H]1C(=O)N[C@@H](CCC(N)=O)C(=O)N[C@@H](COP(=O)(O)O)C(=O)N1CCC[C@H]1C(=O)O` (Myristoyl-KEAPPSPPQ[pS]P-OH), the pIC50 [1] was 6.00.

For `COc1ccc(-c2cc(-c3ccc(Br)cc3)nc3[nH]nc(N)c23)cc1OC`, the pIC50 (Acetylcholinesterase) was 6.80, the pIC50 (Cholinesterase) was 6.16 and the pIC50 [1] was 6.59. For the same compound, the inhibition [2] was 60%, the pIC50 [3] was 4.69 and the inhibition [4] was 75%. For the same compound, the pIC50 [5] was 6.11, the Activity [6] was “Active” and the Activity [7] was “Active”. The Activity [8] was “Active”, the IC50 at 72 h [9] was 84500 nM and the selectivity ratio (human AChE) was 528. It also gave a viability at 72 h, 3.125 µM [10] of 100%.

With `COc1ccc(-c2cc(-c3ccccc3)nc3[nH]nc(N)c23)cc1` the pIC50 (Acetylcholinesterase) was 4.65.

With `Nc1n[nH]c2nc(-c3ccccc3)cc(-c3ccc(Br)cc3)c12` the pIC50 (Acetylcholinesterase) was 5.65.

In the case of `COc1ccc(-c2cc(-c3ccc(OC)c(OC)c3)c3c(N)n[nH]c3n2)cc1`, the pIC50 (Acetylcholinesterase) was 6.09.

`COc1ccc(-c2cc(-c3ccc(Br)cc3)nc3[nH]nc(N)c23)cc1` gave a pIC50 (Acetylcholinesterase) of 6.46.

With `Nc1n[nH]c2nc(-c3ccc(Br)cc3)cc(-c3ccc(Br)cc3)c12` the pIC50 (Acetylcholinesterase) was 6.77, the pIC50 (Cholinesterase) was 6.77 and the pIC50 [1] was 6.68. It also gave an inhibition [2] of 66%, a pIC50 [3] of 4.93 and an inhibition [4] of 79%. The pIC50 [5] was 6.34, the Activity [6] was “Active” and the Activity [11] was “Active”. For the same compound, the Activity [12] was “Active”, the IC50 at 72 h [9] was 58300 nM and the selectivity ratio (human AChE) was 343. The viability at 72 h, 3.125 µM [10] was 100%.

In the case of `COc1ccc(-c2cc(-c3ccc(Br)cc3)c3c(N)n[nH]c3n2)cc1`, the pIC50 (Acetylcholinesterase) was 5.43.

For `Nc1n[nH]c2nc(-c3ccccc3)cc(-c3ccccc3)c12`, the pIC50 (Acetylcholinesterase) was 5.28.
